Laboratory results taken from patent publication US20250129101A1, “Compound, Pharmaceutical Composition Comprising the Same and Method for Treating Cancer Using the Same” (NATIONAL TSING HUA UNIVERSITY, priority 2023, published 2025).

How the values were obtained:
KIF2C = target: T1, KIF2C (Homo sapiens, UniProt Q99661); test: In vitro validation: KIF2C kinesin activity, malachite green-based phosphate colorimetric assay; format: biochemical
T1 construct: KIF2C (216-598 a.a.); 6xHis (C); made in house; host or cells: E. coli BL21 (DE3), pET-28a
T1 sequence (Q99661 216-598): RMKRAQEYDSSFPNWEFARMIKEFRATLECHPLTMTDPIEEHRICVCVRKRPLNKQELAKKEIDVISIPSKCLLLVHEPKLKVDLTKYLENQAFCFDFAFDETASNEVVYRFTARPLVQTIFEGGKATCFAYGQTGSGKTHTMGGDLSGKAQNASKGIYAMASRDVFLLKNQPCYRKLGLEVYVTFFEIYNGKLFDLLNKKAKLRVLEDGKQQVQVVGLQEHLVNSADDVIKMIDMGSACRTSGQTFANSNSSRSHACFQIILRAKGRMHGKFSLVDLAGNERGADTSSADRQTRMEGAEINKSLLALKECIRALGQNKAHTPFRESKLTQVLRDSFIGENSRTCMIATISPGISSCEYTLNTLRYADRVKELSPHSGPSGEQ
Outline: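 KIF2C sN+M construct (aa 216-598, C-terminal 6×His, E. coli-expressed) ATPase activity with microtubules from porcine brain tubulin or HEK293 (293Fs) cells in BRB80 (80 mM PIPES pH 6.8, 1 mM GTP, 10% DMSO), 37° C for 2 hr. Released phosphate detected by malachite green reagent, 10 min, A650.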

MDA-MB-231 cells = test: Cell validation: cytotoxicity in MDA-MB-231 cells (CellTiter-Glo); format: cell-based
Outline: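 MDA-MB-231 cells were seeded at 2000 cells/well and exposed to compounds for the specified number of days. Medium was then replaced with a 1:1 CellTiter-Glo reagent/serum-supplemented DMEM mix for 10 min, and viability was read as luminescence, proportional to living cell number.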

KIF2C and tubulin = target: T2, KIF2C and tubulin (Homo sapiens, UniProt Q99661); test: KIF2C-tubulin affinity pull-down assay; format: binding
T2 construct: KIF2C (216-598 a.a.); made in house; host or cells: E. coli BL21 (DE3), pET-28a (KIF2C); tubulin from porcine brain (Cytoskeleton) or HEK293 cells
T2 sequence (Q99661 216-598): as above
Method: The mixture was subjected to KIF2C pull-down with 50 μL of pre-equilibrated Ni-NTA resin. Residual tubulin that remained interacting with KIF2C was resolved by SDS-PAGE followed by Coomassie brilliant blue staining or western blotting.

4T1 S1 cells = test: Colony formation assay, 4T1 S1 cells; format: cell-based, mouse; conditions: 1 μM 7S9 with 400 nM paclitaxel
Method: To assess the long-term survival of breast cancer cell lines following the treatment of KIF2C knockdown or inhibition, the cells trypsinized into single-cell suspension were homogeneously seeded in 6-well cell culture plates at a density of 5000 cells per dish, supplemented with 2× complete medium (50% 4×DMEM, 20% FBS, 2% penicillin-streptomycin, ddH2O, and 2× glutaMAX™), agarose (0.6% for bottom agar layer; 0.3% for top cell layer), ddH2O, and DMEM. After incubation for 24 hr, cells were treated with indicated drugs, such as DMSO, KIF2C inhibitors, or chemotherapy drugs, and then cultured at 37° C. incubator in an atmosphere of humidified air with 5% CO2 for a further 14-30 days. When the cell colonies grew to appropriate sizes, the culture mediums were replaced with PBS for washing. After that, the plates were stained with 10% crystal violet and analyzed using Image J.

4T1 R4 cells = test: Time-lapse imaging of mitotic progression, 4T1 R4 cells; format: cell-based, mouse; conditions: 1 μM 7S9 and 400 nM paclitaxel
Method: To investigate the role of KIF2C in cell cycle progression, 4T1 cells were cultured in the 4-well chamber slide with about 50% confluence. The culture medium was replaced with a CO2-independent medium (Gibco) supplemented with 10% fetal bovine serum (Biological Industries) and 1% penicillin-streptomycin (Biowest). Then, each well of the chamber slide was treated with indicated drugs, such as DMSO, KIF2C inhibitors, or chemotherapy drugs. After that, the chamber slide was maintained in the microscope stage incubator with the supplement of humidified air with 5% CO2 at 37° C. Multiple-positional time-lapse imaging was performed using an automated Leica DM16000 inverted microscope equipped with HCX PL FL 20×/0.4 and EMCCD camera (Andor Luca R, Belfast, UK). Sequential differential interference contrast (DIC) images of cells obtained at indicated intervals were further analyzed using Metamorph software (Molecular Devices).

inhibitory effect against KIF2C (in words) (KIF2C; 50 μM (FIG. 4I)): selective inhibition against KIF2C | inhibition of KIF2C kinesin activity (in words) (KIF2C; 100 μM (FIG. 4B)): most potent inhibitor of KIF2C | EC50 (KIF2C; concentration that inhibits 50% of KIF2C activity): < 50 µM
SMILES: CCN1CCN(C(=O)COc2ccc(/C=c3\sc4n(c3=O)C(c3ccc(Cl)cc3)C(C(=O)OC(C)C)=C(C)N=4)cc2)CC1.O=C(O)/C=C\C(=O)O (stereo not drawn) [7S9 (133), isopropyl (Z)-5-(4-chlorophenyl)-2-(4-(2-(4-ethylpiperazin-1-yl)-2-oxoethoxy)benzylidene)-7-methyl-3-oxo-2,3-dihydro-5H-thiazolo[3,2-a]pyrimidine-6-carboxylate maleate]
KIF2C activity in the presence of paclitaxel (in words) (KIF2C; 100 μM 7S9, 1 μM paclitaxel): could successfully inhibit KIF2C activity in the presence of paclitaxel | cytotoxicity on MDA-MB-231 cells (in words) (MDA-MB-231 cells; 72 hr): showed cytotoxicity | Cell validation (IC50) (MDA-MB-231 cells; cytotoxicity in MDA-MB-231 cells): + + + | molecular interaction between KIF2C and tubulin (in words) (KIF2C and tubulin): increased by 7S9 in a dose-dependent manner | colony formation, combined treatment (in words) (4T1 S1 cells): did not further suppress colony formation | mitotic defects, combined treatment (in words) (4T1 R4 cells): induced significant defects in mitosis
